Source: ChEMBL document CHEMBL1138419 (Bioorg Med Chem Lett, 2007)
Converted amounts (≈) assume the structure as drawn.

Key:
[1] = biological target: cGMP-specific 3',5'-cyclic phosphodiesterase (Bos taurus, UniProt Q28156); test: Inhibition of bovine PDE5 after 24 hrs by HTRF
[2] = Aqueous solubility in PBS at pH 7.4; format: physicochemical

SMILES	IC50 [1]	solubility [2]
O=C1[C@H]2Cc3c([nH]c4ccccc34)[C@@H](c3ccc4c(c3)OCO4)N2C(=O)CN1c1ccccc1	91 nM	2.4 µM (≈ 1.08 µg/mL)
COc1ccc(N2CC(=O)N3[C@H](c4ccc5c(c4)OCO5)c4[nH]c5ccccc5c4C[C@@H]3C2=O)cc1	16 nM	–
O=C1[C@H]2Cc3c([nH]c4ccccc34)[C@@H](c3ccc4c(c3)OCO4)N2C(=O)CN1c1cccs1	57 nM	–
O=C1[C@H]2Cc3c([nH]c4ccccc34)[C@@H](c3ccc4c(c3)OCO4)N2C(=O)CN1c1ccsc1	18 nM	–
O=C1[C@H]2Cc3c([nH]c4ccccc34)[C@@H](c3ccc4c(c3)OCO4)N2C(=O)CN1c1cccc(Cl)c1	141 nM	–
O=C1[C@H]2Cc3c([nH]c4ccccc34)[C@@H](c3ccc4c(c3)OCO4)N2C(=O)CN1c1ccc([N+](=O)[O-])cc1	122 nM	–
O=C1[C@H]2Cc3c([nH]c4ccccc34)[C@@H](c3ccc4c(c3)OCO4)N2C(=O)CN1c1ccc(C(F)(F)F)cc1	377 nM	–
CCCCc1ccc(N2CC(=O)N3[C@H](c4ccc5c(c4)OCO5)c4[nH]c5ccccc5c4C[C@@H]3C2=O)cc1	152 nM	–
O=C1[C@H]2Cc3c([nH]c4ccccc34)[C@@H](c3ccc4c(c3)OCO4)N2C(=O)CN1c1cccnc1	28 nM	33 µM (≈ 14.9 µg/mL)
O=C1[C@H]2Cc3c([nH]c4ccccc34)[C@@H](c3ccc4c(c3)OCO4)N2C(=O)CN1c1cncnc1	53 nM	25 µM (≈ 11.3 µg/mL)
Cc1cccc(N2CC(=O)N3[C@H](c4ccc5c(c4)OCO5)c4[nH]c5ccccc5c4C[C@@H]3C2=O)c1	68 nM	–
O=C1[C@H]2Cc3c([nH]c4ccccc34)[C@@H](c3ccc4c(c3)OCO4)N2C(=O)CN1c1ccc(Cl)cc1	134 nM	–
CN1CC(=O)N2[C@H](c3ccc4c(c3)OCO4)c3[nH]c4ccccc4c3C[C@@H]2C1=O	–	9.7 µM (≈ 3.78 µg/mL)
